# Data: PMC8041284, “Tunable Methacrylamides for Covalent Ligand Directed Release Chemistry” (Journal of the American Chemical Society, 2021)
# Target: BTK (Homo sapiens, UniProt Q06187)
# Assay: biochemical
# Settings: read-out: BTK inhibition (%), 0.75 uM BTK, […] probe 3l, 15 min preincubation
# Chain of BTK (Q06187 402-655 limits assumed): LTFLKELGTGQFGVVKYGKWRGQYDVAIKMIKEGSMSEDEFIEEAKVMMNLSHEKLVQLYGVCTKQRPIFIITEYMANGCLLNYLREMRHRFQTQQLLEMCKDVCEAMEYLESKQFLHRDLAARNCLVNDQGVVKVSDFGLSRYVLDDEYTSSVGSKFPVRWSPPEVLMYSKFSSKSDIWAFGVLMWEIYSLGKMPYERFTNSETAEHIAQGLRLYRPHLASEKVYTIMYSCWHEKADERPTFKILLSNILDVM
row,inhibition at 10 µM,Structure (SMILES)
1,26.3%,CN1CCN(Cc2ccc(NC(=O)Cc3ccc(Oc4cc(NC(=O)C5CC5)ncn4)cc3)cc2C(F)(F)F)CC1 [PCM-0215373]
2,-6.9%,Cc1cc([C@@H](C)Nc2ccccc2C(=O)O)c2nc(N3CCOCC3)cc(=O)n2c1 [PCM-0214725]
3,57.6%,COc1ccc(-c2cc(=O)c3c(O)cc(O)cc3o2)cc1O [PCM-0094859]
4,-26.9%,CN1CCN(c2ccc(OC(F)(F)F)c(Nc3ncc4c(n3)-c3c(c(C(N)=O)nn3CCO)CC4)c2)CC1 [PCM-0215357]
5,-4.8%,O=C(Nc1cccnc1)N1CCC(Cc2cccc(Oc3ccc(C(F)(F)F)cn3)c2)CC1 [PCM-0095330]
6,22.1%,COC(=O)c1ccc2c(C(=Nc3ccc(N(C)C(=O)CN4CCN(C)CC4)cc3)c3ccccc3)c(O)[nH]c2c1 [PCM-0094897]
7,4.6%,CS(=O)(=O)n1cc2c(n1)CN([C@H]1CO[C@H](c3cc(F)ccc3F)[C@@H](N)C1)C2 [PCM-0215833]
8,0%,C[C@]12CC[C@H](O)CC1=CC[C@@H]1[C@@H]2CC[C@]2(C)C(n3cnc4ccccc43)=CC[C@@H]12 [PCM-0095399]
9,8.6%,CO/N=C(\C(=O)N[C@@H]1C(=O)N2C(C(=O)O)=C(CSc3nnnn3C)CS[C@H]12)c1csc(N)n1 [PCM-0214827]
10,-14%,CCN(CC)C(=O)c1ccc(C2=CC3(CCNCC3)Oc3cccc(O)c32)cc1 [PCM-0094948]
11,4.7%,Cc1nnc(C(=O)NC(C)(C)c2nc(C(=O)NCc3ccc(F)cc3)c(O)c(=O)n2C)o1 [PCM-0095277]
12,-17.9%,COc1cc(Nc2nc3ccccc3nc2NS(=O)(=O)c2ccc(NC(=O)c3ccc(C)c(OC)c3)cc2)cc(OC)c1 [PCM-0095193]
13,5.4%,O=C(c1cncc(Br)c1)N1CCC(N2CCCC2)CC1 [PCM-0095791]
14,12.4%,Cc1oc2nc3c(c(NC(=O)CN4CCCC4=O)c2c1C)CCCC3 [PCM-0216053]
15,-2.1%,CN1CCN(C(=O)c2cc3cc(Cl)ccc3[nH]2)CC1 [PCM-0095374]

# The remaining lines, values behind:
row,Structure (SMILES),inhibition at 10 µM
1,OC[C@H]1O[C@@H](O[C@@H]2[C@@H](CO)O[C@](O)(CO)[C@H]2O)[C@H](O)[C@@H](O)[C@H]1O [PCM-0214810],13.2%
2,Cc1ccc(C(C)C)cc1O [PCM-0215926],-21.4%
3,CCCCCCCCCCCCCCCCCCCC(=O)O [PCM-0216199],9.3%
4,COc1ccc(OC)c(C2C(C#N)=C(N)Oc3n[nH]c(-c4ccc5ccccc5c4)c32)c1 (stereo not shown) [PCM-0215398],1.5%
5,NC(=O)OCC(COC(N)=O)c1ccccc1 [PCM-0065204],3.1%
6,CCOc1ccc(Cc2cc([C@@H]3O[C@H](CO)[C@@H](O)[C@H](O)[C@H]3O)ccc2Cl)cc1 [PCM-0095107],-2.1%
7,CC(=O)O[C@H]1CC[C@H]2[C@@H]3CCc4cc(O)ccc4[C@H]3CC[C@]12C [PCM-0216021],3.1%
8,O=c1ccc2cc(O)ccc2o1 [PCM-0216289],-10%
9,C[C@H](N)C(=O)O [PCM-0216222],-4.3%
10,O=c1cc(-c2ccccc2)oc2cc(O)c(O)c(O)c12 [PCM-0214670],79.4%
11,Nc1cccc2c1CN(C1CCC(=O)NC1=O)C2=O (stereo not shown) [PCM-0094938],14.5%
12,CC(C)c1ccc2c(c1O)CC[C@H]1C3=C(CC[C@]21C)C(=O)OC3 [PCM-0216350],0.8%
13,COc1ccc(-c2cc(=O)c3c(O)cc(O[C@@H]4O[C@H](CO[C@@H]5O[C@@H](C)[C@H](O)[C@@H](O)[C@H]5O)[C@@H](O)[C@H](O)[C@H]4O)cc3o2)cc1 [PCM-0216526],14.7%
14,O=C(O)CSc1cc(NS(=O)(=O)c2ccc(Br)cc2)c2ccccc2c1O [PCM-0215378],51.7%
15,COc1ccc([C@@H]2CC(=O)c3c(O)cc(O[C@@H]4O[C@H](CO[C@@H]5O[C@@H](C)[C@H](O)[C@@H](O)[C@H]5O)[C@@H](O)[C@H](O)[C@H]4O)cc3O2)cc1 [PCM-0216487],-3.1%
16,CC(C)=CCCC(C)CC=O (stereo not shown) [PCM-0216209],4.6%
